Data set [1] concerns formation of osteoclasts in co-culture of bone marrow cells and osteoblasts. In words: Osteoclastogenesis inhibition via co-culture system (TRAP staining). Type of data set: cell-based, mice. The following applies: Mus musculus, Osteoclast, 168 h; 1 μM compound, 7 days co-culture, TRAP-positive multinucleated osteoclasts vs vehicle control. An outline of the steps:
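Bone marrow cells from male ddY mice were co-cultured with osteoblasts for 7 days in α-MEM/10% FBS with 10^−8 M 1α,25-dihydroxyvitamin D3 and dexamethasone. Compound was present at 1 μM final and refreshed every 2–3 days. TRAP-positive cells with 6–7 nuclei were counted, with % inhibition relative to DMSO vehicle (n=4).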

Data set [2] concerns Osteoblasts (Calvarial cells). In words: Alkaline phosphatase (ALP) activity in osteoblasts (Calvarial cells). Type of data set: cell-based, mice. Particulars: Mus musculus, 72 h; 1 μM compound, 3 days, Calvarial cell; read-out: ALP activity (1 μM, % of Control) Calvarial cell. The procedure, abridged:
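Primary calvarial osteoblasts or MC3T3-E1 cells in α-MEM with 10% FBS were treated with 1 μM compound, against a 0.1% DMSO vehicle. Cell lysates were incubated with p-nitrophenylphosphate at 37° for 30 minutes and read at 405 nm. ALP activity was expressed as p-nitrophenol/μg protein/min and reported as % change versus vehicle.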

Data set [3] deals with Osteoblasts (Calvarial cells). Particulars: ICR, mouse, 72 h, 1 μM.
For a further data set, the system named is MC3T3-E1 cells. In words: Alkaline phosphatase (ALP) activity in MC3T3-E1 cells. The format is cell-based. Particulars: Mus musculus, 72 h; 1 μM compound, 3 days, MC3T3-E1 cell; read-out: ALP activity (1 μM, % of Control) MC3T3-E1 cell. On the procedure:
Differentiation and activity of osteoblasts were indirectly evaluated by measuring an ALP activity having a close relationship with osteogenesis.
Osteoblasts (Calvarial cells) prepared in Experimental Example 1 and MC3T3-E1 cells (available from RIKEN Cell Bank, Japan) were collected in α-MEM supplemented with 10% FBS, followed by cell counting. The cells were dispensed into 24-well cultureware at a density of 2×10^4 cells/well. After culturing of the cells for 24 hours, the culture media were discarded and replaced with fresh media in which test compounds were diluted to a concentration of 1 μM (1 mL/well). In addition, the vehicle control group containing 0.1% DMSO was also treated. […] When the experiment was terminated, the supernatant was removed and the cells were washed three times with cold phosphate buffer at 4°. 0.2% Triton X-100 was added to the washed cells which were then subjected to three cycles of freezing at −70° and thawing at room temperature for the complete lysis of cells. The cell extracts were pooled and centrifuged to collect the cell supernatant which was used for the measurement of ALP activity and proteins. The protein concentration was measured using a BCA assay kit (manufactured by Sigma-Aldrich). For the measurement of ALP activity, p-nitrophenylphosphate was added to the cell supernatant which was then incubated at 37° for 30 minutes, and the reaction was terminated with the addition of 50 μL of 0.2N sodium hydroxide. The standard curve was plotted at the absorbance of 405 nm using p-nitrophenol as a standard material and then the absorbance of test materials thus reacted was measured to determine the production amount of p-nitrophenol.
The ALP activity was calculated by dividing the amount of p-nitrophenol produced from each test material by the protein amount and the reaction time. Therefore, the unit of ALP activity was given in terms of p-nitrophenol/μg protein/min. The results are given in Tables 28-1 and 28-2 where the ALP activity unit of each test material was given in terms of % change through the comparison between the individual test materials and the vehicle control group.

22 molecules from patent US20110306606A1, “NOVEL 2,6-SUBSTITUTED-3-NITROPYRIDINE DERIVATIVE, METHOD FOR PREPARING SAME, AND PHARMACEUTICAL COMPOSITION INCLUDING SAME” (priority 2008, published 2011) can be followed below.

The structures appear in SMILES notation.

As a reminder, the inhibition is the share of the control response that was lost under treatment. A lower inhibition goes with a response near the control. Turning to `Cc1ccc(Nc2nc(NCCCn3ccnc3)ccc2[N+](=O)[O-])cc1` [Compound 9, 2-(4-methylphenylamino)-6-[(3-imidazol-1-yl)propylamino]-3-nitropyridine], the inhibition at 1 µM in data set [1] was found to be 93%. In addition, the activity at 1 µM stood at 129% in data set [2] and 175% in the data set with MC3T3-E1 cells. Moreover, the “Cell viability (%) Calvarial cell” value in data set [3] is listed as 121%.
For `COc1ccc(Nc2nc(NC(C)C)ccc2[N+](=O)[O-])cc1` [Compound 16, 2-(4-methoxyphenylamino)-6-(isopropylamino)-3-nitropyridine], the “Cell viability (%) Calvarial cell” value in data set [3] came to 100%. Further, the activity at 1 µM in the data set on MC3T3-E1 cells is 118%.
For `COc1ccc(Nc2nc(-n3ccnc3C(C)C)ccc2[N+](=O)[O-])cc1` [Compound 21, 2-(4-methoxyphenylamino)-6-[(2-isopropyl)imidazol-1-yl]-3-nitropyridine] the same measures were 90% and 124%.
For `COc1ccc(Nc2nc(NCc3ccncc3)ccc2[N+](=O)[O-])cc1` [Compound 22, 2-(4-methoxyphenylamino)-6-[(4-pyridyl)methylamino]-3-nitropyridine], the activity at 1 µM was 121% in data set [2] and 123% in the data set with MC3T3-E1 cells. In data set [3], the “Cell viability (%) Calvarial cell” value is given as 92%.
`COc1ccc(Nc2nc(NCCCn3ccnc3)ccc2[N+](=O)[O-])cc1` [Compound 25, 2-(4-methoxyphenylamino)-6-[(3-imidazol-1-yl)propylamino]-3-nitropyridine] had an inhibition at 1 µM in data set [1] of 98%. The activity at 1 µM in data set [2] was 126%; with MC3T3-E1 cells, 148%. In addition, the “Cell viability (%) Calvarial cell” value in data set [3] is on record as 101%.
For the molecule `CC(C)(C)c1ccc(Nc2nc(NCCCn3ccnc3)ccc2[N+](=O)[O-])cc1` [Compound 39, 2-[4-(t-butyl)phenylamino]-6-[(3-imidazol-1-yl)propylamino]-3-nitropyridine], in data set [1], 1 µM produced 98% inhibition. In data set [3], the “Cell viability (%) Calvarial cell” value is on record as 111%. Further, the activity at 1 µM in the data set on MC3T3-E1 cells came out at 175%.
In the case of `CC(C)(C)c1ccc(Nc2nc(NCCc3ccccn3)ccc2[N+](=O)[O-])cc1` [Compound 40, 2-[4-(t-butyl)phenylamino]-6-[2-(2-pyridyl)ethylamino]-3-nitropyridine], the inhibition at 1 µM in data set [1] came to 89%. Besides, the activity at 1 µM turned out to be 126% in data set [2] and 210% in the data set with MC3T3-E1 cells. Moreover, the “Cell viability (%) Calvarial cell” value in data set [3] came out at 82%.
For the molecule `CNc1ccc([N+](=O)[O-])c(Nc2ccc(C#N)cc2)n1` [Compound 45, 2-(4-cyanophenylamino)-6-(methylamino)-3-nitropyridine], the figures for the activity at 1 µM (in data set [2]; with MC3T3-E1 cells) were 133% and 124%, respectively. Further, in data set [3], the “Cell viability (%) Calvarial cell” value was 89%.
The corresponding values for `N#Cc1ccc(Nc2nc(N3CCC(O)CC3)ccc2[N+](=O)[O-])cc1` [Compound 47, 2-(4-cyanophenylamino)-6-(4-hydroxypiperidino)-3-nitropyridine] are 111%, 117% and 88%.
As to `CC(C)c1nccn1-c1ccc([N+](=O)[O-])c(Nc2ccc(C#N)cc2)n1` [Compound 49, 2-(4-cyanophenylamino)-6-[(2-isopropyl)imidazol-1-yl]-3-nitropyridine], the activity at 1 µM in data set [2] worked out at 112%; in the data set on MC3T3-E1 cells, 122%. Further, the “Cell viability (%) Calvarial cell” value in data set [3] is on record as 96%.
As for `N#Cc1ccc(Nc2nc(NCc3ccncc3)ccc2[N+](=O)[O-])cc1` [Compound 50, 2-(4-cyanophenylamino)-6-[(4-pyridyl)methylamino]-3-nitropyridine], the inhibition at 1 µM in data set [1] is 94%. Besides, the activity at 1 µM in data set [2] stood at 149%; in the data set with MC3T3-E1 cells, 177%. Also, the “Cell viability (%) Calvarial cell” value in data set [3] is on record as 115%.
For `N#Cc1cccc(Nc2nc(NCCCn3ccnc3)ccc2[N+](=O)[O-])c1` [Compound 53, 2-[3-cyanophenylamino]-6-[(3-imidazol-1-yl)propylamino]-3-nitropyridine] the same measures were 97%, 134%, 121% and 115%.
Turning to `O=[N+]([O-])c1ccc(NCc2ccncc2)nc1Nc1ccc(-n2ccnc2)cc1` [Compound 94, 2-[4-(imidazol-1-yl)phenylamino]-6-[(4-pyridyl)methylamino]-3-nitropyridine], the inhibition at 1 µM in data set [1] is 93%. Further, in data set [3], the “Cell viability (%) Calvarial cell” value is recorded as 85%. Also, the activity at 1 µM in the data set on MC3T3-E1 cells came out at 134%.
As for `O=[N+]([O-])c1ccc(NCCCn2ccnc2)nc1Nc1ccc(-n2ccnc2)cc1` [Compound 95, 2-[4-(imidazol-1-yl)phenylamino]-6-[(3-imidazol-1-yl)propylamino]-3-nitropyridine], the activity at 1 µM in data set [2] was 138%; with MC3T3-E1 cells, 185%. Besides, the “Cell viability (%) Calvarial cell” value in data set [3] stood at 93%.
Regarding `CNc1ccc([N+](=O)[O-])c(Nc2cccc(C(C)=O)c2)n1` [Compound 96, 2-(3-acetylphenylamino)-6-(methylamino)-3-nitropyridine], in data set [3], the “Cell viability (%) Calvarial cell” value is listed as 90%. Besides, the activity at 1 µM with MC3T3-E1 cells came to 137%.
On to `CC(=O)c1cccc(Nc2nc(-n3ccnc3C(C)C)ccc2[N+](=O)[O-])c1` [Compound 101, 2-(3-acetylphenylamino)-6-[(2-isopropyl)imidazol-1-yl]-3-nitropyridine], for which the “Cell viability (%) Calvarial cell” value in data set [3] is listed as 92%. Moreover, the activity at 1 µM in the data set with MC3T3-E1 cells amounted to 123%.
Turning to `CC(=O)c1cccc(Nc2nc(NCc3cccnc3)ccc2[N+](=O)[O-])c1` [Compound 102, 2-(3-acetylphenylamino)-6-[(3-pyridyl)methylamino]-3-nitropyridine], the activity at 1 µM was 122% in data set [2] and 126% in the data set on MC3T3-E1 cells. Moreover, in data set [3], the “Cell viability (%) Calvarial cell” value is 92%.
`CC(=O)c1cccc(Nc2nc(NCc3ccncc3)ccc2[N+](=O)[O-])c1` [Compound 103, 2-(3-acetylphenylamino)-6-[(4-pyridyl)methylamino]-3-nitropyridine] gave an inhibition at 1 µM in data set [1] of 74%. The “Cell viability (%) Calvarial cell” value in data set [3] was determined as 93%. Moreover, the activity at 1 µM in the data set on MC3T3-E1 cells amounted to 151%.
Consider `CNc1ccc([N+](=O)[O-])c(Nc2ccc(N3CCOCC3)cc2)n1` [Compound 108, 2-(4-morpholinophenylamino)-6-(methylamino)-3-nitropyridine], for which the “Cell viability (%) Calvarial cell” value in data set [3] amounted to 100%. For the same molecule, the activity at 1 µM with MC3T3-E1 cells was 111%.
As to `O=[N+]([O-])c1ccc(N2CCC(O)CC2)nc1Nc1ccc(N2CCOCC2)cc1` [Compound 112, 2-(4-morpholinophenylamino)-6-(4-hydroxypiperidino)-3-nitropyridine], the activity at 1 µM in data set [2] came out at 122%; in the data set with MC3T3-E1 cells, 148%. In addition, in data set [3], the “Cell viability (%) Calvarial cell” value is 103%.
Take `O=[N+]([O-])c1ccc(NCc2cccnc2)nc1Nc1ccc(N2CCOCC2)cc1` [Compound 115, 2-(4-morpholinophenylamino)-6-[(3-pyridyl)methylamino]-3-nitropyridine]: in data set [1], the inhibition at 1 µM is 89%. The activity at 1 µM came to 127% in data set [2] and 148% in the data set with MC3T3-E1 cells.
For the molecule `O=[N+]([O-])c1ccc(NCCCn2ccnc2)nc1Nc1ccc(N2CCOCC2)cc1` [Compound 119, 2-(4-morpholinophenylamino)-6-[(3-imidazol-1-yl)propylamino]-3-nitropyridine], in data set [3], the “Cell viability (%) Calvarial cell” value is 107%. Further, the activity at 1 µM with MC3T3-E1 cells was found to be 167%.
